A value given as a limit tells only on which side of the number the result lay.

Common to all, as to type: biochemical
One assay addresses T1, KRas WT (Homo sapiens, UniProt P01116).
T1 construct: Biotinylated KRas WT(1-169); biotin (biotinylated)
Put plainly: SOS1-Catalyzed Nucleotide Exchange Assay, KRas WT. Conditions: 20 nM KRas WT (1-169, GDP-loaded), 10 nM SOS1. The procedure:
(§1) KRas G12R and WT: Compounds were pre-dispensed using acoustic transfer technology into a black, low volume 384-well assay plate. A 10-point dose response of each compound was performed with a 30 μM top dose. Biotinylated KRas WT(1-169) or KRas G12R (1-169) loaded with GDP nucleotide was mixed with Streptavidin-Tb cryptate (Cisbio) in assay buffer (20 mM HEPES pH 7.4, 150 mM NaCl, 2 mM MgCl2, and 0.005% CA680) to produce a 1.5× solution. 10 μL of the 1.5× KRas-cryptate solution was added to wells of a black, low-volume 384-well assay plate. The KRas/cryptate-compound mixture was incubated for 1 hour at room temperature. A 3× solution of SOS1 (564-1049) and EDA-GTP-DY-647P1 (Jena Bioscience) was prepared in assay buffer. 5 μL of the SOS1-labeled GTP solution was added to the wells to initiate the nucleotide exchange reaction. The final concentration of KRas G12R and SOS1 were 10 nM and 200 nM, respectively. The final concentration of KRas WT and SOS1 were 20 nM and 10 nM, respectively. The plate was allowed to incubate for 1 hr, then time resolved fluorescence was read on a PHERAstar plate reader equipped with a filter module with excitation=337 nm and emission 1=620 nm, emission 2=665 nm. The TR-FRET signal was calculated as the ratio of fluorescence intensity [emission 665 nm]/[emission 620 nm]. IC50 values were calculated using a four-parameter, variable response sigmoidal dose response curve fit in PerkinElmer Signals VitroVivo.

Assay [1] concerns the target T2, KRas G12V (Homo sapiens, UniProt P01116, G12V).
T2 construct: Biotinylated KRas G12V (aa 1-169) loaded with GDP nucleotide; biotin (biotinylated)
The experiment in a line: SOS1-Catalyzed Nucleotide Exchange Assay, KRas G12V (Method 1). The settings on record: 5 nM KRas G12V (aa 1-169, GDP-loaded), 50 nM SOS1. As to the method:
KRas G12V [Method 1]: Biotinylated KRas G12V (aa 1-169) loaded with GDP nucleotide and Streptavidin-Europium (SA-EU, Columbia Biosciences) were preincubated in assay buffer (20 mM HEPES pH 7.4, 150 mM NaCl, 5 mM MgCl2, 1 mM DTT, 0.01% Brij-35, 0.3 mg/mL BSA) on ice for 30 min. Separately SOS1 (aa 546-1049) and EDA-GTP-DY647P1 (Jena Bioscience) were preincubated in assay buffer on ice for 30 min. After pre-incubation, 5 μL buffer and 5 μL of KRas G12V-SA-Eu were added to each well of a white, low-volume, non-binding 384-well plate. Compounds were then added to respective wells with a Tecan D300e liquid dispenser. A 10-point concentration response curve for each compound was prepared with appropriate top concentration (1 μM, 10 μM, or 300 μM) and incubated for 30 min. 5 μL of SOS1-EDA-GTP-D467P1 was added to start the nucleotide exchange reaction. Final concentration in the assay were 5 nM KRas G12V, 50 nM SOS1 (aa 564-1049). The reaction was allowed to proceed for 60-90 minutes after which the plate was read on a PHERAstar FSX plate reader (exc: 337 nm, em 1: 665 nm, em 2: 620 nm). After normalization of the raw data (ratio of Signal665nm/Signal620nm) the data was fit to a four-parameter logistic curve in GraphPad Prism (v9.4.1).

A further assay has as its target T3, KRas G12R (Homo sapiens, UniProt P01116, G12R).
T3 construct: KRas G12R (1-169) loaded with GDP nucleotide; biotin (biotinylated)
Put plainly: SOS1-Catalyzed Nucleotide Exchange Assay, KRas G12R. Conditions: 10 nM KRas G12R (1-169, GDP-loaded), 200 nM SOS1. The procedure:
as §1

The target of assay [2] is T2, KRas G12V. The experiment in a line: SOS1-Catalyzed Nucleotide Exchange Assay, KRas G12V (Method 2). The settings on record: Method 2, B; 5 nM KRas G12V (aa 1-169, GDP-loaded), 50 nM SOS1; read-out: KRas G12V IC50 (nM) (Method 2, B). The method, boiled down:
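Biotinylated GDP-loaded KRas G12V (aa 1-169, 5 nM final) with SA-Eu, preincubated 30 min with compound, then SOS1 (50 nM) plus EDA-GTP-DY647P1 added; exchange ran 60-90 min in HEPES pH 7.4 buffer. 10-point curves, top 1, 10 or 100 μM; normalized data fit to four-parameter logistic.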

T2 sequence (P01116 1-169 G12V): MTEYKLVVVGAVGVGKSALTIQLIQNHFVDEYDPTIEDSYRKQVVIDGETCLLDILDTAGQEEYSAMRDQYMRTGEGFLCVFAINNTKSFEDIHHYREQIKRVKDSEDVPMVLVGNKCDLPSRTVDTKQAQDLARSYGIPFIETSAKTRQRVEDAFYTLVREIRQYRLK
T3 sequence (P01116 1-169 G12R): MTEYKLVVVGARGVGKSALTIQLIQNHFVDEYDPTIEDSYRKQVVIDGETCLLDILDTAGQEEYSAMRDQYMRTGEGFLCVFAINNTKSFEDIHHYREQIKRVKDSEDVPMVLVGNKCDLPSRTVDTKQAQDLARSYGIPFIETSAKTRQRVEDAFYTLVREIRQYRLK
T1 sequence (P01116 1-169): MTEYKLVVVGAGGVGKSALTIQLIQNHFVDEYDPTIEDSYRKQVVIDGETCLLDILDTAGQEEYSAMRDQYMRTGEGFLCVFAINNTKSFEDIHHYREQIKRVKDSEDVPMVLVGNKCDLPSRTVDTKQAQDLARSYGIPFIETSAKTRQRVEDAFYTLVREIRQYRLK

By IC50 is commonly meant the concentration that gives 50% inhibition. Turning to `O=C1CCCCc2c(Cl)cc(O)cc2-c2ncc3c(nc(OC[C@@]45CCCN4C[C@H](F)C5)nc3c2F)N2CCC[C@H](CCN1)C2` (single isomer, unassigned) [Compound 115b], the “KRas WT IC50 (nM)” value on KRas WT was “++ ++”. Besides, the IC50 on KRas G12V [1] and against KRas G12R was no more than 100 nM in each case.
For the compound `O=C1CCCCc2c(Cl)cc(O)cc2-c2ncc3c(nc(OC[C@@]45CCCN4C[C@H](F)C5)nc3c2F)N2CCC[C@@H](CCN1)C2` (single isomer, unassigned) [Compound 115c], the IC50 against KRas WT, on KRas G12V [1] and against KRas G12R was no more than 100 nM each time.
In the case of `O=C1CCc2c(Cl)cc(O)cc2-c2ncc3c(nc(OC[C@@]45CCCN4C[C@H](F)C5)nc3c2F)N2CCCC(CCN1)C2` (stereo partly drawn) [Compound 113a, 3^3-chloro-2^8-fluoro-2^2-(((2R,7aS)-2-fluorotetrahydro-1H-pyrrolizin-7a(5H)-yl)methoxy)-3^5-hydroxy-7-aza-2(4,7)-pyrido[4,3-d]pyrimidina-1(1,3)-piperidina-3(1,2)-benzenacyclononaphan-6-one], the values for the IC50 against KRas WT, on KRas G12V [1] and against KRas G12R were 1000 to 10000 nM, 1000 to 10000 nM and 10000 to 30000 nM, respectively.
Regarding `O=C1CCCCc2c(Cl)cc(O)cc2-c2ncc3c(nc(OC[C@@]45CCCN4C[C@H](F)C5)nc3c2F)N2CCCC(CCN1)C2` (stereo partly drawn) [Compound 115a, 3^3-chloro-2^8-fluoro-2^2-(((2R,7aS)-2-fluorotetrahydro-1H-pyrrolizin-7a(5H)-yl)methoxy)-3^5-hydroxy-9-aza-2(4,7)-pyrido[4,3-d]pyrimidina-1(1,3)-piperidina-3(1,2)-benzenacycloundecaphan-8-one], the IC50 against KRas WT, at KRas G12V [1] and against KRas G12R was no more than 100 nM each time.
In the case of `Oc1cc2c3c(c(F)ccc3c1)-c1cn(nn1)CCCCC1CCCN(C1)c1nc(OC[C@@]34CCCN3C[C@H](F)C4)nc3c(F)c-2ncc13` (stereo partly drawn) [Compound 125a, (Z)-2^8,3^7-difluoro-2^2-(((2R,7aS)-2-fluorotetrahydro-1H-pyrrolizin-7a(5H)-yl)methoxy)-4^1H-2(4,7)-pyrido[4,3-d]pyrimidina-1(1,3)-piperidina-4(4,1)-triazola-3(1,8)-naphthalenacyclooctaphan-3^3-ol], the half-maximal inhibitory concentration (IC50) was in the range of 1000 to 10000 nM against KRas WT, 10000 to 30000 nM against KRas G12V [1] and 10000 to 30000 nM on KRas G12R.
Regarding `O=C1CCCCc2c(Cl)cc(O)cc2-c2ncc3c(nc(OC[C@@]45CCCN4C[C@H](F)C5)nc3c2F)N2CCCC(O)(CCN1)C2` (stereo partly drawn) [Compound 140a, 3^3-chloro-2^8-fluoro-2^2-(((2R,7aS)-2-fluorotetrahydro-1H-pyrrolizin-7a(5H)-yl)methoxy)-1^3,3^5-dihydroxy-9-aza-2(4,7)-pyrido[4,3-d]pyrimidina-1(1,3)-piperidina-3(1,2)-benzenacycloundecaphan-8-one], on KRas G12V [1], the IC50 was no more than 100 nM.
The same measure, in the same setting: in the case of `O=C1CCCCc2c(Cl)cc(O)cc2-c2ncc3c(nc(OC[C@@]45CCCN4C[C@H](F)C5)nc3c2F)N2CCCC(CN1)C2` (stereo partly drawn) [Compound 141a, 3^3-chloro-2^8-fluoro-2^2-(((2R,7aS)-2-fluorotetrahydro-1H-pyrrolizin-7a(5H)-yl)methoxy)-3^5-hydroxy-9-aza-2(4,7)-pyrido[4,3-d]pyrimidina-1(1,3)-piperidina-3(1,2)-benzenacyclodecaphan-8-one] it was no more than 100 nM.
Consider `Oc1ccc2c(c1)-c1ncc3c(nc(OC[C@@]45CCCN4C[C@H](F)C5)nc3c1F)N1CCCC(CCCCCCC2)C1` (stereo partly drawn) [Compound 143a, 2^8-fluoro-2^2-(((2R,7aS)-2-fluorotetrahydro-1H-pyrrolizin-7a(5H)-yl)methoxy)-2(4,7)-pyrido[4,3-d]pyrimidina-1(1,3)-piperidina-3(1,2)-benzenacyclodecaphan-3^5-ol], for which the values for the IC50 against KRas WT, on KRas G12V [1] and against KRas G12R were no more than 100 nM, 100 to 1000 nM and 100 to 1000 nM, respectively.
`Oc1cc(Cl)c2c(c1)-c1ncc3c(nc(OC[C@@]45CCCN4C[C@H](F)C5)nc3c1F)N1CCCC(O)(CCCCCC2)C1` (stereo partly drawn) [Compound 151a, 3^3-chloro-2^8-fluoro-2^2-(((2R,7aS)-2-fluorotetrahydro-1H-pyrrolizin-7a(5H)-yl)methoxy)-2(4,7)-pyrido[4,3-d]pyrimidina-1(1,3)-piperidina-3(1,2)-benzenacyclononaphane-1^3,3^5-diol]: the IC50 at KRas WT, at KRas G12V [1] and against KRas G12R was no more than 100 nM throughout.
In the case of `Oc1cc(Cl)c2c(c1)-c1ncc3c(nc(OC[C@@]45CCCN4C[C@H](F)C5)nc3c1F)N1CCCC(O)(CCCCCCC2)C1` (stereo partly drawn) [Compound 152a, 3^3-chloro-2^8-fluoro-2^2-(((2R,7aS)-2-fluorotetrahydro-1H-pyrrolizin-7a(5H)-yl)methoxy)-2(4,7)-pyrido[4,3-d]pyrimidina-1(1,3)-piperidina-3(1,2)-benzenacyclodecaphane-1^3,3^5-diol], the IC50 against KRas WT, at KRas G12V [1] and at KRas G12R was no more than 100 nM in each case.
Regarding `Oc1cc(Cl)c2c(c1)-c1ncc3c(nc(OC[C@@]45CCCN4C[C@H](F)C5)nc3c1F)N1CCCC(Cc3noc(n3)CCCCCC2)C1` (stereo partly drawn) [Compound 153a, (Z)-1^3-chloro-2^8-fluoro-2^2-(((2R,7aS)-2-fluorotetrahydro-1H-pyrrolizin-7a(5H)-yl)methoxy)-5(3,5)-oxadiazola-2(7,4)-pyrido[4,3-d]pyrimidina-3(1,3)-piperidina-1(1,2)-benzenacycloundecaphan-1^5-ol], the IC50 against KRas WT, against KRas G12V [1] and on KRas G12R was 100 to 1000 nM throughout.
`O=C1CCCCc2c(Cl)cc3[nH]ncc3c2-c2ncc3c(nc(OC[C@@]45CCCN4C[C@H](F)C5)nc3c2F)N2CCOCC(CN1)C2` (stereo partly drawn) [Compound 203a, 3^6-chloro-2^8-fluoro-2^2-(((2R,7aS)-2-fluorotetrahydro-1H-pyrrolizin-7a(5H)-yl)methoxy)-3^1H-9-aza-1(4,6)-oxazepana-2(4,7)-pyrido[4,3-d]pyrimidina-3(4,5)-indazolacyclodecaphan-8-one]: the IC50 at KRas G12V [2] was no more than 100 nM.

The values above are taken from US20260364089A1, “PYRIDOPYRIMIDINE KRAS INHIBITORS” (Treeline Biosciences, Inc., priority 2022, published 2026).
